In ChEMBL document CHEMBL1153470, “Design, synthesis, and biological evaluation of 16-substituted 4-azasteroids as tissue-selective androgen receptor modulators (SARMs)” (J Med Chem, 2009):
≈ marks a conversion by molar mass, not a printed value.

Assays:
[1] = Half life in Beagle dog at 0.2 mg/kg, iv; assay type: ADME, organism-based, Canis lupus familiaris; set-up: dose 0.2 mg/kg, route intravenous; settings: in vivo
[2] = Clearance in Beagle dog at 0.2 mg/kg, iv; assay type: ADME, organism-based, Canis lupus familiaris; set-up: dose 0.2 mg/kg, route intravenous; settings: in vivo
[3] = AUC in ovariectomized Sprague-Dawley rat at 1 mg/kg, sc; settings: female, plasma
[4] = Aqueous solubility at pH 2; assay type: physicochemical
[5] = AUC in ovariectomized Sprague-Dawley rat at 10 mg/kg, sc; assay type: ADME, organism-based; set-up: dose 10 mg/kg, route subcutaneous; settings: female, plasma
[6] = AUC in orchidectomized Sprague-Dawley rat at 10 mg/kg, sc; assay type: ADME, organism-based; set-up: dose 10 mg/kg, route subcutaneous; settings: male, plasma
[7] = AUC in orchidectomized Sprague-Dawley rat at 30 mg/kg, sc; assay type: ADME, organism-based; set-up: dose 30 mg/kg, route subcutaneous; settings: male, plasma
[8] = Oral bioavailability in Beagle dog at 1 mg/kg; assay type: ADME, organism-based, Canis lupus familiaris; settings: in vivo
in vivo [9] = settings: male, Sprague-Dawley, rat, plasma, sc, 3 mg/kg
in vivo [10] = settings: female, Sprague-Dawley, rat, plasma, sc, 3 mg/kg

SMILES | half-life [1] | clearance [2] | also measured
C[C@@H]1C[C@H]2[C@@H]3CC[C@H]4N(C)C(=O)C=C[C@]4(C)[C@H]3CC[C@]2(C)[C@H]1O | 1 h | 20.2 mL/min/kg | –
COC[C@@H]1C[C@H]2[C@@H]3CC[C@H]4N(C)C(=O)C=C[C@]4(C)[C@H]3CC[C@]2(C)[C@H]1O | 1.5 h | 11 mL/min/kg | –
Cc1ncc(/C=C2\C[C@H]3[C@@H]4CC[C@H]5N(C)C(=O)C=C[C@]5(C)[C@H]4CC[C@]3(C)[C@H]2O)cn1 | 18.7 h | 1.5 mL/min/kg | AUC [3]: 17 µM·h; solubility [4]: 230 µg/mL (≈ 564 µM)
CN1C(=O)C=C[C@]2(C)[C@H]3CC[C@]4(C)[C@@H](O)/C(=C/c5cncnc5)C[C@H]4[C@@H]3CC[C@@H]12 | 2.3 h | 15.3 mL/min/kg | AUC [5]: 17 µM·h; solubility [4]: 570 µg/mL (≈ 1450 µM); AUC [6]: 4.3 µM·h; AUC [7]: 16.2 µM·h; bioavailability [8]: 51%
CN1C(=O)C=C[C@]2(C)[C@H]3CC[C@]4(C)[C@@H](O)[C@H](Cc5cccc(F)c5)C[C@H]4[C@@H]3CC[C@@H]12 | 3 h | 22 mL/min/kg | –
CN1C(=O)C=C[C@]2(C)[C@H]3CC[C@]4(C)[C@@H](O)/C(=C/c5cc(F)cc(F)c5)C[C@H]4[C@@H]3CC[C@@H]12 | 9.1 h | 6.8 mL/min/kg | –
C/C=C1\C[C@H]2[C@@H]3CC[C@H]4N(C)C(=O)C=C[C@]4(C)[C@H]3CC[C@]2(C)[C@H]1O | 1 h | 42.8 mL/min/kg | –
CN1C(=O)C=C[C@]2(C)[C@H]3CC[C@]4(C)[C@@H](O)CC[C@H]4[C@@H]3CC[C@@H]12 | 0.7 h | 32.3 mL/min/kg | –
COc1ncc(/C=C2\C[C@H]3[C@@H]4CC[C@H]5N(C)C(=O)C=C[C@]5(C)[C@H]4CC[C@]3(C)[C@H]2O)cn1 | 12.7 h | 4.6 mL/min/kg | –
CN1C(=O)C=C[C@]2(C)[C@H]3CC[C@]4(C)[C@@H](O)/C(=C/c5cccc(F)c5)C[C@H]4[C@@H]3CC[C@@H]12 | 4.9 h | 15.2 mL/min/kg | –
CN1C(=O)C=C[C@]2(C)[C@H]3CC[C@]4(C)[C@@H](O)/C(=C/c5cccnc5)C[C@H]4[C@@H]3CC[C@@H]12 | 17.1 h | 5 mL/min/kg | bioavailability [8]: 21%
CNc1ncc(/C=C2\C[C@H]3[C@@H]4CC[C@H]5N(C)C(=O)C=C[C@]5(C)[C@H]4CC[C@]3(C)[C@H]2O)cn1 | 10.9 h | 0.8 mL/min/kg | –
C[C@]12CCC(=O)C[C@@H]1CC[C@@H]1[C@@H]2CC[C@]2(C)[C@@H](O)CC[C@@H]12 [STANOLONE] | – | – | AUC (in vivo [9]): 0.08 µM·h; AUC (in vivo [10]): 0.02 µM·h
